The source of these data is US4552898A, “[3.2.0]Bicycloheptanone oxime ethers with valuable therapeutic properties” (Syntex (U.S.A.) Inc., priority 1983, dated 1985).

Where only a bound is given, the exact number is not on record here.

Tested on in the first data set: not listed separately
Kind of data set: Acute toxicity in mice, single intraperitoneal administration. More on the design: species or system Male Sim: (SW)f BR mice. The settings on record: mouse, in vivo, ip. Here is the method: Male Sim: (SW)f BR mice weighing approximately 25 g were randomly assigned to treatment groups of 6 animals, caged together, and were given food and water ad libitum.
The test material was prepared as an aqueous solution or suspension in CMC vehicle (sodium carboxymethyl cellulose, 0.5 g; sodium chloride, 0.9 g; benzyl alcohol, 0.9 ml; Tween 80, 0.4 ml; and water to 100 ml). The test material and the control vehicle were administered once by the indicated route at a dose level of 10 ml per kg body weight.
Following administration of the test material on day 1, animals were observed daily and any deaths were recorded.
One may read the LD50 as the dose expected to kill half of the subjects tested. Read a high LD50 as lower toxicity. `CCCCCC(O)C#CC1CC2C(=NOCCC(=O)O)CC2C1O` (stereo not drawn) [Test Material] had an LD50 of more than 120 mg/kg.

In another data set the test system is human platelet-rich plasma. Kind of data set: In vitro human platelet aggregation inhibition (turbidimetric). The format is cell-based. The settings on record: ADP inducer. Here is the method:
Biological activity of the claimed compounds is tested by in vitro human platelet aggregation assay. This assay determines the effectiveness of the compounds in inhibiting the platelet aggregation
Immediately thereafter, the platelets start to secrete large quantities of adenosine diphosphate (ADP) which, in turn activates the other platelets that adhere to the original platelets and eventually form the plug which closes the rupture of the vascular wall. In medical parlance the first process is called collagen-induced primary platelet aggregation, the second process is called ADP-mediated secondary platelet aggregation. This situation can be artificially simulated by natural platelet aggregation inducers such as collagen, ADP, or arachidonic acid to the human platelet-rich plasma.
The blood samples used for the assay are collected into sodium citrate anticoagulant of a final concentration of 0.38%. The platelet-rich plasma is collected after centrifugation at 200 rpm at room temperature. To determine whether the platelet-rich plasma needs dilution to obtain optimal optical density, citrated plasma containing […] platelets per milliliter is pipetted into a Spinco transparent plastic centrifuge tube. The tube is inserted into a Unicam SP 400 absorptiometer and the light at the wave-length of 600 mμ is passed through the tube. The dark current is set at infinity and the optical density of distilled water at zero. The plasma is stirred by a magnetic stirrer. If necessary, platelet-rich plasma is diluted with 0.154M sodium chloride to obtain appropriate optical density
Platelet-rich plasma of appropriate optical density is mixed with appropriate concentration of tested compounds to make up 1 ml of mixture of platelet-rich plasma and tested compound. The concentration of each tested compound varied from 1.0×10^-5 moles to 1.0×10^-9 moles. Each concentration is tested individually by number of repetitions varying from 1 to 6. Each sample mixture consisting of platelet-rich plasma and tested compound is incubated for about 3 to 5 minutes under constant stirring at 500 rpm at 30° C. Thereafter, a predetermined optimal concentration of platelet aggregation inducer is added to each sample mixture. Inducers which are used for testing may be chosen from: […]
Adenosine Diphosphate (ADP) is purchased from Sigma Chemical Company. ADP inducer solution of final concentration of 5 μmol is prepared by dissolving 214 mg of ADP in 1 ml of tris buffer (0.01M at pH 9 at 22° C.). […]
A tube with the mixture of platelet-rich plasma, tested compound and ADP inducer (5 μmol/10 μl) is inserted into the absorptiometer and optical density changes are recorded on chart. Aggregation of the platelets is determined from maximal optical density change. Maximal optical density of a mixture of platelet-rich plasma with inducer, but without the tested compounds, is taken as 100% of platelet aggregation. The maximal optical density of the sample mixture of platelet-rich plasma, ADP inducer and appropriate amount of tested compound is compared to the maximal optical density of the sample without tested compound and inhibitory effectiveness of tested compounds is calculated. For each sample the percentage of the platelet aggregation is calculated and if more than one measurement with the same concentration of the tested compounds are done, the final value is expressed as an average of all measurements with ±S.E. The inhibitory concentration is the effective concentration of tested compound which is able to prevent 50% of the platelet aggregation, where, without the tested compound, the platelet aggregation would have been 100%. PGE1 has an IC50 of 2-8×10^-8 M.
Broadly, the IC50 is the midpoint of a concentration-inhibition curve. `CCCCCC(O)C#CC1CC2C(=NOCC(=O)O)CC2C1O` (stereo not drawn) [Compound 1, N--[2-endo-hydroxy-3-exo-(3αS--hydroxyoct-1-ynyl)bicyclo[3.2.0]hept-6-ylidene]aminooxyacetic acid] registered an IC50 of 18.6 nM. As for `O=C(O)CON=C1CC2C1CC(/C=C/C(O)C1CCCC1)C2O` (stereo not drawn) [Compound 5], the IC50 came out at 11.2 nM. With `CCCCCC(O)C#CC1CC2C(=NOCC(=O)O)CC2C1O` (stereo not drawn) [Compound 11, N--[2-endo-hydroxy-3-exo-(3αβS--hydroxyoct-1-ynyl)bicyclo[3.2.0]hept-6-ylidene]aminooxyacetic acid], half-maximal inhibition (IC50) was put at 70 nM. Regarding `CCCCCC(O)C#CC1CC2C(=NOCCC(=O)O)CC2C1O` (stereo not drawn) [Compound 12, N--[2-endo-hydroxy-3-exo-(3αS--hydroxyoct-1-ynyl)bicyclo[3.2.0]hept-6-ylidene]-3-aminooxypropionic acid], half-maximal inhibition (IC50) was put at 31 nM. Turning to `O=C(O)CCON=C1CC2C1CC(/C=C/C(O)C1CCCC1)C2O` (stereo not drawn) [Compound 16, N--[2-endo-hydroxy-3-exo-(3α-hydroxy-3-cyclopentylprop-1-trans-enyl)bicyclo[3.2.0]hept-6-ylidene]-3-aminooxypropionic acid], the IC50 was determined as 10.5 nM. On the same count and under the same terms, the result for `O=C(O)CCON=C1CC2C1CC(/C=C/C(O)C1CCCCC1)C2O` (stereo not drawn) [Compound 19, N--[2-endo-hydroxy-3-exo-(3α-hydroxy-3-cyclohexylprop-1-trans-enyl)bicyclo[3.2.0]hept-6-ylidene]-3-aminooxypropionic acid] reads 81 nM; that for `CCCCCC(O)C#CC1CC2C(=NOCCC(=O)O)CC2C1O` (stereo not drawn) [Compound 23, N--[2-endo-hydroxy-3-exo-(3-hydroxyoct-1-ynyl)bicyclo[3.2.0]hept-6-ylidene] -3-aminooxypropionic acid], 175 nM. `CCCCCC(O)C#CC1CC2C(=NOCCC(=O)O)CC2C1O` (stereo not drawn) [Compound 24, N--[2-endo-hydroxy-3-exo-(3αβS--hydroxyoct-1-ynyl)bicyclo[3.2.0]hept-6-ylidene]-3-aminooxypropionic acid] displayed an IC50 of 43 nM.

The same data set, now with this note: Homo sapiens, Platelet, ADP inducer.
`CCCCCC(O)C=CC1CC2C(=NOCC(=O)O)CC2C1O` (stereo not drawn) [Compound 2, N--[2-endo-hydroxy-3-exo-(3αS--hydroxyoct-1-trans-enyl)bicyclo[3.2.0]hept-6-ylidene]aminooxyacetic acid] came in with an IC50 of 89 nM. In turn, `CCCCCC(O)CCC1CC2C(=NOCC(=O)O)CC2C1O` (stereo not drawn) [Compound 3, N--[2-endo-hydroxy-3-exo-(3αβS--hydroxyoct-1-yl)bicyclo[3.2.0]hept-6-ylidene]aminooxyacetic acid] showed an IC50 of 1400 nM. `O=C(O)CON=C1CC2C1CC(C#CC(O)C1CCCC1)C2O` (stereo not drawn) [Compound 4, N--[2-endo-hydroxy-3-exo-(3-hydroxy-3-cyclopentylprop-1-ynyl)bicyclo[3.2.0]hept-6-ylidene]aminooxyacetic acid] returned an IC50 of 12.5 nM.

The compound `O=C(O)CON=C1CC2C1CC(CCC(O)C1CCCC1)C2O` (stereo not drawn) [Compound 6, N--[2-endo-hydroxy-3-exo-(3-hydroxy-3-cyclopentylprop-1-yl)bicyclo[3.2.0]hept-6-ylidene]aminooxyacetic acid] registered an IC50 of 1000 nM. `O=C(O)CON=C1CC2C1CC(C#CC(O)C1CCCCC1)C2O` (stereo not drawn) [Compound 7, N--[2-endo-hydroxy-3-exo-(3-hydroxy-3-cyclohexylprop-1-ynyl)bicyclo[3.2.0]hept-6-ylidene]aminooxyacetic acid] showed an IC50 of 24 nM. The compound `O=C(O)CON=C1CC2C1CC(CCC(O)C1CCCCC1)C2O` (stereo not drawn) [Compound 8, N--[2-endo-hydroxy-3-exo-(3-hydroxy-3-cyclohexylprop-1-yl)bicyclo[3.2.0]hept-6-ylidene]aminooxyacetic acid] came in with an IC50 of 88 nM. As to `CCCCCCCC(O)C#CC1CC2C(=NOCC(=O)O)CC2C1O` (stereo not drawn) [Compound 9, N--[2-endo-hydroxy-3-exo-(3-hydroxydec-1-ynyl)bicyclo[3.2.0]hept-6-ylidene]aminooxyacetic acid], 32 nM corresponded to half-maximal inhibition (IC50).

Consider `CCCCCC(O)C=CC1CC2C(=NOCCC(=O)O)CC2C1O` (stereo not drawn) [Compound 13, N--[2-endo-hydroxy-3-exo-(3αS--hydroxyoct-1-trans-enyl)bicyclo[3.2.0]hept-6-ylidene]-3-aminooxypropionic acid], for which half-maximal inhibition (IC50) required 6.9 nM. In turn, `CCCCCC(O)CCC1CC2C(=NOCCC(=O)O)CC2C1O` (stereo not drawn) [Compound 14, N--[2-endo-hydroxy-3-exo-(3αβS--hydroxyoct-1-yl)bicyclo[3.2.0]hept-6-ylidene]-3-aminooxypropionic acid] yielded an IC50 of 2200 nM. `O=C(O)CCON=C1CC2C1CC(C#CC(O)C1CCCC1)C2O` (stereo not drawn) [Compound 15, N--[2-endo-hydroxy-3-exo-(3-hydroxy-3-cyclopentylprop-1-ynyl)bicyclo[3.2.0]hept-6-ylidene]-3-aminooxypropionic acid] had an IC50 of 31 nM.

Consider `O=C(O)CCON=C1CC2C1CC(CCC(O)C1CCCC1)C2O` (stereo not drawn) [Compound 17, N--[2-endo-hydroxy-3-exo-(3-hydroxy-3-cyclopentylprop-1-yl)bicyclo[3.2.0]hept-6-ylidene]-3-aminooxypropionic acid], for which the IC50 amounted to 1020 nM. On to `O=C(O)CCON=C1CC2C1CC(C#CC(O)C1CCCCC1)C2O` (stereo not drawn) [Compound 18, N--[2-endo-hydroxy-3-exo-(3-hydroxy-3-cyclohexylprop-1-ynyl)bicyclo[3.2.0]hept-6-ylidene]-3-aminooxypropionic acid], for which it took 8.4 nM to reach half-maximal inhibition (IC50). Take `O=C(O)CCON=C1CC2C1CC(CCC(O)C1CCCCC1)C2O` (stereo not drawn) [Compound 20, N--[2-endo-hydroxy-3-exo-(3-hydroxy-3-cyclohexylprop-1-yl)bicyclo[3.2.0]hept-6-ylidene]-3-aminooxypropionic acid]: the IC50 worked out at 2350 nM. Same read-out and setting: the result for `CCCCCCCC(O)C#CC1CC2C(=NOCCC(=O)O)CC2C1O` (stereo not drawn) [Compound 21, N--[2-endo-hydroxy-3-exo-(3-hydroxydec-1-ynyl)bicyclo[3.2.0]hept-6-ylidene]-3-aminooxypropionic acid] reads 117 nM. As for `CCCCCCCC(O)CCC1CC2C(=NOCCC(=O)O)CC2C1O` (stereo not drawn) [Compound 22, N--[2-endo-hydroxy-3-exo-(3-hydroxydec-1-yl)bicyclo[3.2.0]hept-6-ylidene]-3-aminooxypropionic acid], the IC50 came to 1300 nM. In turn, `CCCCCC(O)C#CC1CC2C(=NOCCCC(=O)O)CC2C1O` (stereo not drawn) [Compound 25, N--[2-endo-hydroxy-3-exo-(3αβS--hydroxyoct-1-ynyl)bicyclo[3.2.0]hept-6-ylidene]-4-aminooxybutyric acid] came in with an IC50 of 420 nM. The compound `CCCCCC(O)C#CC1C(O)CC2C(=NOCCC(=O)O)CC21` (stereo not drawn) [Compound 26, N--[3-endo-hydroxy-2-exo-(3αβS--hydroxyoct-1-ynyl)bicyclo[3.2.0]hept-6-ylidene]-3-aminooxypropionic acid] yielded an IC50 of 21000 nM. In turn, `CCCCCC(O)C#CC1C(O)CC2C(=NOCCCC(=O)O)CC21` (stereo not drawn) [Compound 27, N--[3-endo-hydroxy-2-exo-(3αβS--hydroxyoct-1-ynyl)bicyclo[3.2.0]hept-6-ylidene]-4-aminooxybutyric acid] gave an IC50 of 1100 nM.
